# Test results published in PubChem BioAssay (NCI).
# Several values for one entry are separate records, joined by “and”; a condition that tells them apart may be missing. Identical values can stand only once.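 Each compound was tested at five concentrations against cells in 96-well plates for 48 hours. Abbreviation: GI50, concentration required for 50% inhibition of growth. TGI: total growth inhibition.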 Activity calls are given as the source filed them. Cut-off read from the data, not from the text of the source: active = GI50 below about 0.43 µM; inactive = the rest.
# Columns and labels:
# Test in all cases: inhibition of tumour cell growth, NCI panel, 48 h
# DMS 114 small cell lung = test system: DMS 114 small cell lung
# HOP-18 NSCLC = test system: HOP-18 NSCLC
# SNB-78 CNS = test system: SNB-78 CNS
# DLD-1 colon = test system: DLD-1 colon
# LXFL 529 NSCLC = test system: LXFL 529 NSCLC
# M19-MEL melanoma = test system: M19-MEL melanoma
# RXF-631 renal = test system: RXF-631 renal
# MDA-N = test system: MDA-N
Compound,TGI (DMS 114 small cell lung),TGI (HOP-18 NSCLC),TGI (SNB-78 CNS),TGI (DLD-1 colon),TGI (LXFL 529 NSCLC) [µM],TGI (M19-MEL melanoma),TGI (RXF-631 renal) [µM],TGI (MDA-N) [µM],other results
Cc1ccc(NC(=O)/C(C#N)=C/c2ccccc2)c(C)c1,> 100 µM,> 100 µM,> 100 µM,> 100 µM,> 100,> 100 µM,,,
CC(=O)Nc1ccc(S(=O)(=O)NN(C)S(=O)(=O)c2ccc(C)cc2)cc1,> 100 µM,,,> 100 µM,,> 100 µM,,,
O=C(Cc1ccccc1)C(c1ccccc1)S(=O)(=O)c1ccccc1 (stereo not given),> 100 µM,> 100 µM,> 100 µM,> 100 µM,> 100,> 100 µM,> 100,,
C#CCNC(=O)NC(CCCCNC(=O)OCc1ccccc1)C(=O)OCc1ccccc1 (stereo not given),> 100 µM,> 68.2 µM,80.1 µM,> 100 µM,> 100,27.6 µM,,> 68.3,
CC(=O)OCC(CC[CH2][Sn]([Cl])([Cl])[c]1ccccc1)OC(C)=O (stereo not given),,40 µM,48.7 µM,47.2 µM,27,62.1 µM,,,GI50 (HOP-18 NSCLC): 16.5 µM; GI50 (SNB-78 CNS): 27.5 µM; GI50 (DLD-1 colon): 21.2 µM; GI50 (LXFL 529 NSCLC): 14 µM; GI50 (M19-MEL melanoma): 25.1 µM
N#C/C(=C1\OC(=N)C(c2ccc(Cl)cc2Cl)C1=O)c1ccc(Cl)cc1Cl (stereo not given),> 100 µM,,> 100 µM,> 100 µM,> 100,> 100 µM,> 100,,
C=C1C=CC2(Br)OC3CC(C)(Cl)C(Br)CC13C2(C)C (stereo not given),32.4 µM,,61.7 µM,> 100 µM,> 100,44.9 µM,> 100,,
CCOC(=O)C(Cc1ccc(N(CCCl)CCCl)cc1)NC(=O)C(Cc1ccccc1)NC(C)=O (stereo not given),,,,,,,,> 0.371,
O=c1[nH]c2ccccc2n1C1CCN(CCCC(c2ccc(F)cc2)c2ccc(F)cc2)CC1,6.52 µM,29 µM,32 µM,13.9 µM,13.4,13.1 µM,,21.4,
Cc1nnc(N/N=C(/C(=O)C(C#N)c2ccc(Cl)cc2)C(C#N)c2ccc(Cl)cc2)n1N (stereo not given),31.4 µM,30 µM,51.3 µM,42.4 µM,26.6,,35.4,,
O=c1[nH]c(=S)[nH]c(-c2ccccc2)c1Cc1c(O)ccc2ccccc12,,,,,,,,89.5,
CC1CCC2(C)C(CC=C(C=O)C2(O)C=O)C12CO2 (stereo not given),4.84 µM,,5.46 µM,,3.33,5.75 µM,5.77,,
COc1c(CC=C(C)C)c(O)c(C(CC(C)C)c2c(O)c(CC=C(C)C)c(O)c(C(C)=O)c2O)c(O)c1C(C)=O (stereo not given),0.575 µM,14.7 µM,17.5 µM,10.9 µM,,5.13 µM,6.94,8.08,
CC(C)(C)c1cc(C(=O)O)c2c(c1)C(=O)OC2(c1ccccc1)c1ccccc1C(=O)O (stereo not given),> 100 µM,> 100 µM,,> 100 µM,> 100,> 100 µM,,,
C[P+]1(c2ccccc2)CCCCC1,> 100 µM,,> 100 µM,> 100 µM,> 100,> 100 µM,> 100,,
O=C(CO)C1CC2C=CC1C2 (stereo not given),> 100 µM,,> 100 µM,,> 100,> 100 µM,> 100,,
CN1CCCC1c1cccnc1.O=C(O)c1ccccc1O.O=C([O-])c1ccccc1[OH2+].O=C([O-])c1ccccc1[OH2+].[Mn+2] (stereo not given),,,,,,,,> 100,GI50 (MDA-N): > 100 µM

Compound,TGI (DMS 114 small cell lung),TGI (HOP-18 NSCLC),TGI (SNB-78 CNS),TGI (DLD-1 colon),TGI (LXFL 529 NSCLC) [µM],TGI (M19-MEL melanoma),TGI (RXF-631 renal) [µM],TGI (MDA-N) [µM],other results
c1ccc(CN2COc3c(ccc4c5c(ccc34)CN(Cc3ccccc3)CO5)C2)cc1,> 100 µM,> 100 µM,> 100 µM,> 100 µM,> 100,> 100 µM,> 100,> 100,
O=C(c1c(O)cc(O)cc1O)C1Cc2ccccc21 (stereo not given),> 100 µM,> 100 µM,> 100 µM,> 100 µM,> 100,> 100 µM,,,
C/C(=N\NC(=S)N1CCN(c2ccccn2)CC1)c1ncccn1,0.271 µM and 1.08 µM,8.39 µM and 20.3 µM,23.1 µM,4.98 µM and 14.3 µM,,2.67 µM and 11.2 µM,,14.8,GI50 (HOP-18 NSCLC): 4.4 µM; GI50 (MDA-N): 0.233 µM; GI50 (DLD-1 colon): 0.0258 µM; GI50 (M19-MEL melanoma): 1.54 µM
Cc1cc2c(c(=O)o1)C1=S(SC(c3ccccc3)=C1)S2 (stereo not given),,,,,,,,> 100,
[Cl][Cu][Cl],,,,,,,,> 10,GI50 (MDA-N): > 10 µM
O=[N+]([O-])c1cc(Cc2cc([N+](=O)[O-])c3cccnc3c2O)c(O)c2ncccc12,,,,,,,,> 80,
COC1=C(OC)[C@]2(OC)c3c(O)c(OC)c4c(c3O[C@@]23O[C@@H](c2ccccc2)CC=C3C1=O)[C@@H](OC)C[C@H](c1ccccc1)O4,,,,,,,,1.16,GI50 (MDA-N): 0.34 µM
NC(=O)CC(N)c1nn[nH]n1 (stereo not given),,,,,,,,> 100,
Nc1nc(C(=O)O)c(N=Nc2ccccc2)c(=O)[nH]1,,,,,,,,> 100,
O=C(CC(=O)c1ccccc1)C(=O)Nc1ccc(Cl)cc1,> 57 µM,> 100 µM,> 100 µM,> 100 µM,> 100,,,,
CC1=NNC(=S)NCCCN2CCN(CCCNC(=S)NN=C(C)C=NNC(=S)NCCCN3CCN(CCCNC(=S)NN=C1)CC3)CC2,,,,,,,,> 100,
Cc1ccc(S(=O)(=O)NC(=O)OC23COCN2COC3)cc1,,,,,,,,> 100,
Cc1cc(O)c2c3c(ccc2c1)C(=O)c1c(O)cccc1C3=O,,,,,,,,0.353,
COc1c(OC(C)C)cc2cc(O)c(C(=O)NC3Cc4ccc(c(Cl)n4)O[C@@H]4C=C5C#C/C(=C\C#CC6OC56C4OC4CC(C)(O)C(O)C(C)O4)C(OC4CC(O)C(N(C)C)C(C)O4)COC3=O)cc2c1OC (stereo not given in full),10.4 µg/mL,,37.5 µg/mL,37.5 µg/mL,,37.5 µg/mL,,> 36.3,GI50 (DMS 114 small cell lung): 0.926 µg/mL; outcome (HOP-18 NSCLC): inactive; outcome (RXF-631 renal): inactive; GI50 (SNB-78 CNS): 37.5 µg/mL; GI50 (DLD-1 colon): 8.16 µg/mL; outcome (LXFL 529 NSCLC): inactive; GI50 (M19-MEL melanoma): 1.68 µg/mL
CCc1ccccc1NC(=O)CC1NC(=O)CS1 (stereo not given),> 100 µM,> 100 µM,> 100 µM,> 100 µM,> 100,> 100 µM,> 100,,
CC(=O)CC(=O)CCC(=O)Nc1cccc(C(F)(F)F)c1,> 100 µM,> 100 µM,> 100 µM,> 100 µM,> 100,,,,
Cn1nc(-c2ccccc2)c(C(=O)/C=C/c2ccc(Cl)cc2)c(N2CCOCC2)c1=O,9.83 µM,17 µM,,13.6 µM,9.89,20.7 µM,23.2,,
